Assay results as given in patent US11584755B2 (IDEAYA BIOSCIENCES, INC., priority 2017, dated 2023).

Assays:
Assay type in all cases: biochemical
[1] = target: hFEN1 (Homo sapiens (Human), UniProt P39748); assay: Enzymatic IC50 assay, FAM-labeled DNA oligomer substrate, fluorescence intensity (FEN1); conditions: hFEN1 70 pM, substrate 100 nM, reaction time 20 minutes, 23° C.
How it was run: (§1)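 FEN1, EXO1 or XPG was preincubated 15 min with compound, then the FAM-labelled DNA oligomer substrate was added in Tris-HCl pH 8.0 with 10 mM MgCl2 at 23° C. FEN1 was 70 pM with 100 nM substrate for 20 min, EXO1 6 nM with 30 nM for 60 min, and XPG 100 nM with 100 nM for 120 min. Reactions were EDTA-stopped and read by fluorescence intensity.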

[2] = target: hEXO1, Isoform1 (Homo sapiens (Human), UniProt Q9UQ84); assay: Enzymatic IC50 assay, FAM-labeled DNA oligomer substrate, fluorescence intensity (EXO1); conditions: hEXO1 6 nM, substrate 30 nM, reaction time 60 minutes, 23° C.
Chain of hEXO1, Isoform1 (Q9UQ84 whole entry, canonical isoform): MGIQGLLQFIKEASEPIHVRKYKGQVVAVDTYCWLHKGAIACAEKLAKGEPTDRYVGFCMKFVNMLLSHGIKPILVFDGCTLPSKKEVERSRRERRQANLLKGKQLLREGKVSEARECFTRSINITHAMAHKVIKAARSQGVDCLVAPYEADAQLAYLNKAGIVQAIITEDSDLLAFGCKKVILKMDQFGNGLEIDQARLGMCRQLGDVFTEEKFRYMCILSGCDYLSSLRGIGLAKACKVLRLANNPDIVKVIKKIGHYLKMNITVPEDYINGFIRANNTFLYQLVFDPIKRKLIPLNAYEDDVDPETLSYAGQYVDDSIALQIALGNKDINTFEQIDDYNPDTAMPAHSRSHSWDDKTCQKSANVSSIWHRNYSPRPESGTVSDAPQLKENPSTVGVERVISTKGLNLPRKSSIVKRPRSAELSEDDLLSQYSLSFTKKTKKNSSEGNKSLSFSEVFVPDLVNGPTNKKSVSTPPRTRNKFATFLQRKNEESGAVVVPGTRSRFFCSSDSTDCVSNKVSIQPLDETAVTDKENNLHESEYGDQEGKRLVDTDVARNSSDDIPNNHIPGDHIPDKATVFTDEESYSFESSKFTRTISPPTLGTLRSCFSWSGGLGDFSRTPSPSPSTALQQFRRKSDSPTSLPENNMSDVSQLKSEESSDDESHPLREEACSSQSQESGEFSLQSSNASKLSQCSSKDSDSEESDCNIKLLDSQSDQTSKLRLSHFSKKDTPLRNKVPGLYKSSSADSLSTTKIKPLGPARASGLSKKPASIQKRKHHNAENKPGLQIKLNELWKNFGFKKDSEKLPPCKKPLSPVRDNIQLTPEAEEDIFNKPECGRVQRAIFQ
How it was run: as §1

[3] = target: hXPG (Homo sapiens (Human), UniProt P28715); assay: Enzymatic IC50 assay, FAM-labeled DNA oligomer substrate, fluorescence intensity (XPG); conditions: hXPG 100 nM, substrate 100 nM, reaction time 120 minutes, 23° C.
Chain of hXPG (P28715 whole entry): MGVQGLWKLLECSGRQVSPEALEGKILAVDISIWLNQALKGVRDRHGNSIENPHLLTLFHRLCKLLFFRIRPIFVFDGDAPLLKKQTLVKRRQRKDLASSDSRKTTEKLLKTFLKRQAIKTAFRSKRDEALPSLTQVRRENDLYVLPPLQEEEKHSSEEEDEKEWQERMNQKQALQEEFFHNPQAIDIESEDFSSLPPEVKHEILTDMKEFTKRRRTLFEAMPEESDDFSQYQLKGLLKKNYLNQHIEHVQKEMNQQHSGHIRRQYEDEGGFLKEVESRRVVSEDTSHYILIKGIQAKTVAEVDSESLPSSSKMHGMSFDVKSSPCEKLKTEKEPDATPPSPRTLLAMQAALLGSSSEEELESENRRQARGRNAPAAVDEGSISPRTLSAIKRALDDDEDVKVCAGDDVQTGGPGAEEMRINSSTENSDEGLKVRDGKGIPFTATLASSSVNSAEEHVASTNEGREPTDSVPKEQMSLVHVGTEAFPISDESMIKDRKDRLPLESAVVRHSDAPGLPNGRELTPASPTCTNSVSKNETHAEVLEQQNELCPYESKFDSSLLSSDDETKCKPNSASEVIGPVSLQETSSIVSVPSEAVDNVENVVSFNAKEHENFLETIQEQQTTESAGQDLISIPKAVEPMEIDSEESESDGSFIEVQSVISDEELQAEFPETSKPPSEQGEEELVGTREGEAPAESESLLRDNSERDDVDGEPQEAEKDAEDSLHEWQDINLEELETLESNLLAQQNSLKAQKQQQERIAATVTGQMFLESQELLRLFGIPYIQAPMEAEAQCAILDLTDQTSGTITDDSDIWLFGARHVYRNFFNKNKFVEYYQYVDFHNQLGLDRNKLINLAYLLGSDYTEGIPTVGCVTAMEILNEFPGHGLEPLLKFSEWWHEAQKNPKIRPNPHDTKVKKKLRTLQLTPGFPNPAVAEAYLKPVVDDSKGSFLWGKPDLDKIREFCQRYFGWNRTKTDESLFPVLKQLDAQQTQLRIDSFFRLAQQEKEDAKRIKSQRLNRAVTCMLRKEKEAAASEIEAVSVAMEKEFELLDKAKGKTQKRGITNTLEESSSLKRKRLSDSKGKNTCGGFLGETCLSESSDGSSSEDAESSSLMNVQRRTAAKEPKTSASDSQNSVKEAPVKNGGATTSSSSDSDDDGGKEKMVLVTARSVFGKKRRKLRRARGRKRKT
Method: FEN1, EXO1 or XPG enzyme was incubated with compound or vehicle (DMSO) and the FAM-labeled DNA oligomer substrate in a microtiter plate. The stop buffer contains EDTA to stop the enzymatic reaction. The plate is read for fluorescence intensity. The high control (DMSO) with high fluorescence intensity represents no inhibition of enzymatic reaction while the low control (10 μM) with low fluorescence intensity represents full inhibition of enzymatic reaction.
• FEN1 • hFEN1: 70 pM • Substrate: 100 nM • Reaction time: 20 minutes • EXO1 • hEXO1: 6 nM, Isoforml • Substrate: 30 nM • Reaction time: 60 minutes • XPG • hXPG: 100 nM • Substrate: 100 nM • Reaction time: 120 minutes
Annealing Buffer: 50 mM Tris-HCl, 50 mM NaCl, 1 mM DTT Assay buffer: 50 mM Tris-HCl pH 8.0, 10 mM MgCl2, 0.01% BSA, 1 mM DTT Stop buffer: 50 mM EDTA in assay buffer Temperature: 23° C. Total volume: 40 μl Controls: • 0% inhibition control: DMSO • 100% inhibition control: 10 μM (final) 5-chloro-3-hydroxy-1,3-dihydroquinazoline-2,4-dione Enzyme Reaction and Detection: • 1. Prepare 25 μM intermediate stock of the substrate by diluting SEQ ID NO:1, SEQ ID NO:2, and SEQ ID NO:3 in annealing buffer, in a PCR tube. • 2. Place the PCR tube on a heat block, heat at 95° C. for 3 minutes, then drop in 0.2° C. increments over 2 minutes, stopping at 25° C. • 3. Remove the tube and let the tube cool at room temperature. • 4. Transfer 10 μL of 3× final concentration test compounds or DMSO to the appropriate wells of a microtiter plate. • 5. Transfer 10 μL of 3× final concentration enzyme in assay buffer or assay buffer alone to the appropriate wells. • 6. Incubate the plate at room temperature for 15 minutes. • 7. Transfer 10 μL of 3× substrate in assay buffer to all the test wells. • 8. Incubate the plate at room temperature for prescribed reaction time. • 9. Centrifuge the plate at 1000 rpm for 1 minute. • 10. Transfer 10 μL of stop buffer to all the test wells. • 11. Centrifuge the plate at 1000 rpm for 1 minute. • 12. Read the plate on a plate reader.

Chain of hFEN1 (P39748 whole entry): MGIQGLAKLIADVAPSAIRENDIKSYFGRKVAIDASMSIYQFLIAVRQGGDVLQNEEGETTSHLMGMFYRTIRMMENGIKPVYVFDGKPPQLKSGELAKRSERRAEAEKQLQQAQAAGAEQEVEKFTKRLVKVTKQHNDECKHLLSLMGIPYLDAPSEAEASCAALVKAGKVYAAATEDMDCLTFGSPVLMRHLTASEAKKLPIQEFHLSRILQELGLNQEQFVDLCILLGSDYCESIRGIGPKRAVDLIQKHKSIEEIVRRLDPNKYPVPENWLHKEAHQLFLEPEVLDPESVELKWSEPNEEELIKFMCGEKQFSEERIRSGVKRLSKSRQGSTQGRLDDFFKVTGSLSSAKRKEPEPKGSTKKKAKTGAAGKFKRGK

| Structure (SMILES) | IC50 [1] [nM] | IC50 [2] [nM] | IC50 [3] [nM] |
| --- | --- | --- | --- |
| O=C(O)c1c(O)c(=O)n(Cc2nc(-c3ccccc3)no2)c2ccsc12 [Example 86, 6-hydroxy-5-oxo-4-[(3-phenyl-1,2,4-oxadiazol-5-yl)methyl]-4,5-dihydrothieno[3,2-b]pyridine-7-carboxylic acid] | 250 to 750 | 750 to 2250 | 750 to 2250 |
| CC(=O)Nc1ccc(-n2cc(Cn3c(=O)c(O)c(C(=O)O)c4sccc43)cn2)cc1 [Example 22, 4-{[1-(4-acetamidophenyl)-1H-pyrazol-4-yl]methyl}-6-hydroxy-5-oxo-4,5-dihydrothieno[3,2-b]pyridine-7-carboxylic acid] | < 200 | 250 to 750 | 250 to 750 |
| O=C(O)c1c(O)c(=O)n(Cc2cnn(CC(=O)N3CCOCC3)c2)c2ccsc12 [Example 156] | < 200 | 2250 to 10000 | 2250 to 10000 |
| Cn1cc(Cn2c(=O)c(O)c(C(=O)O)c3sccc32)cn1 [Example 90, 6-hydroxy-4-[(1-methyl-1H-pyrazol-4-yl)methyl]-5-oxo-4,5-dihydrothieno[3,2-b]pyridine-7-carboxylic acid] | < 200 | 2250 to 10000 | 2250 to 10000 |
| Cc1cc(C#N)ccc1Cn1cc(Cn2c(=O)c(O)c(C(=O)O)c3sccc32)cn1 [Example 133, 4-{[1-(4-cyano-2-methylbenzyl)-1H-pyrazol-4-yl]methyl}-6-hydroxy-5-oxo-4,5-dihydrothieno[3,2-b]pyridine-7-carboxylic acid] | < 200 | 2250 to 10000 | 750 to 2250 |
| Cn1cc(Cn2cc(Cn3c(=O)c(O)c(C(=O)O)c4sccc43)cn2)cn1 [Example 143, 6-hydroxy-4-({1-[(1-methyl-1H-pyrazol-4-yl)methyl]-1H-pyrazol-4-yl}methyl)-5-oxo-4,5-dihydrothieno[3,2-b]pyridine-7-carboxylic acid] | < 200 | 2250 to 10000 | 2250 to 10000 |
| O=C(O)c1c(O)c(=O)n(Cc2noc(-c3ccccc3)n2)c2ccsc12 [Example 88, 6-hydroxy-5-oxo-4-[(5-phenyl-1,2,4-oxadiazol-3-yl)methyl]-4,5-dihydrothieno[3,2-b]pyridine-7-carboxylic acid] | 750 to 2250 | 250 to 750 | 2250 to 10000 |
| O=C(O)c1c(O)c(=O)n(Cc2cnc[nH]2)c2ccsc12 [Example 75, 4-[(1H-imidazol-5-yl)methyl]-6-hydroxy-5-oxo-4,5-dihydrothieno[3,2-b]pyridine-7-carboxylic acid] | 750 to 2250 | 2250 to 10000 | > 10000 |
| O=C(O)c1c(O)c(=O)n(Cc2cn(-c3ccccc3)nn2)c2ccsc12 [Example 18, 6-hydroxy-5-oxo-4-((1-phenyl-1H-1,2,3-triazol-4-yl)methyl)-4,5-dihydrothieno[3,2-b]pyridine-7-carboxylic acid] | 250 to 750 | 250 to 750 | 750 to 2250 |
| O=C(O)c1c(O)c(=O)n(Cc2cnn(Cc3ccncc3)c2)c2ccsc12 [Example 121, 6-hydroxy-5-oxo-4-{[1-(pyridin-4-ylmethyl)-1H-pyrazol-4-yl]methyl}-4,5-dihydrothieno[3,2-b]pyridine-7-carboxylic acid] | < 200 | 2250 to 10000 | 2250 to 10000 |
| CS(=O)(=O)c1cccc(-n2cc(Cn3c(=O)c(O)c(C(=O)O)c4sccc43)cn2)c1 [Example 115, 6-hydroxy-4-({1-[3-(methylsulfonyl)phenyl]-1H-pyrazol-4-yl}methyl)-5-oxo-4,5-dihydrothieno[3,2-b]pyridine-7-carboxylic acid] | < 200 | < 200 | 750 to 2250 |
| CS(=O)(=O)c1ccc(-n2cc(Cn3c(=O)c(O)c(C(=O)O)c4sccc43)cn2)cc1 [Example 116, 6-hydroxy-4-({1-[4-(methylsulfonyl)phenyl]-1H-pyrazol-4-yl}methyl)-5-oxo-4,5-dihydrothieno[3,2-b]pyridine-7-carboxylic acid] | < 200 | 250 to 750 | 750 to 2250 |
| O=C(O)c1c(O)c(=O)n(CC2CCOC2)c2ccsc12 (stereo not drawn) [Example 42, 6-hydroxy-5-oxo-4-((tetrahydrofuran-3-yl)methyl)-4,5-dihydrothieno[3,2-b]pyridine-7-carboxylic acid] | 2250 to 10000 | 2250 to 10000 | 2250 to 10000 |
| O=C(O)c1c(O)c(=O)n(Cc2cnc3ccccc3c2)c2ccsc12 [Example 101, 6-hydroxy-5-oxo-4-(quinolin-3-ylmethyl)-4,5-dihydrothieno[3,2-b]pyridine-7-carboxylic acid] | 250 to 750 | 250 to 750 | 2250 to 10000 |
| Cc1ncc(Cn2c(=O)c(O)c(C(=O)O)c3sccc32)s1 [Example 91, 6-hydroxy-4-[(2-methylthiazol-5-yl)methyl]-5-oxo-4,5-dihydrothieno[3,2-b]pyridine-7-carboxylic acid] | < 200 | 2250 to 10000 | 2250 to 10000 |
| NC(=O)Cn1cc(Cn2c(=O)c(O)c(C(=O)O)c3sccc32)cn1 [Example 136, 4-{[1-(2-amino-2-oxoethyl)-1H-pyrazol-4-yl]methyl}-6-hydroxy-5-oxo-4,5-dihydrothieno[3,2-b]pyridine-7-carboxylic acid] | < 200 | 2250 to 10000 | > 10000 |

Second part, the molecule after the results:

| IC50 [1] [nM] | IC50 [2] [nM] | IC50 [3] [nM] | Structure (SMILES) |
| --- | --- | --- | --- |
| < 200 | 2250 to 10000 | 2250 to 10000 | O=C(O)c1c(O)c(=O)n(Cc2cnn(Cc3cccnc3)c2)c2ccsc12 [Example 120, 6-hydroxy-5-oxo-4-{[1-(pyridin-3-ylmethyl)-1H-pyrazol-4-yl]methyl}-4,5-dihydrothieno[3,2-b]pyridine-7-carboxylic acid] |
| < 200 | 2250 to 10000 | 2250 to 10000 | CN(C(=O)Cn1cc(Cn2c(=O)c(O)c(C(=O)O)c3sccc32)cn1)c1ccccc1 [Example 155] |
| < 200 | 2250 to 10000 | 2250 to 10000 | O=C(O)c1c(O)c(=O)n(Cc2cccc(Cl)c2)c2ccsc12 [Example 34, 4-(3-chlorobenzyl)-6-hydroxy-5-oxo-4,5-dihydrothieno[3,2-b]pyridine-7-carboxylic acid] |
| < 200 | 2250 to 10000 | 2250 to 10000 | O=C(O)c1c(O)c(=O)n(Cc2cnn(Cc3cn4ncccc4n3)c2)c2ccsc12 [Example 138] |
| 250 to 750 | 2250 to 10000 | 750 to 2250 | O=C(O)c1c(O)c(=O)n(Cc2nnc(-c3ccccc3)o2)c2ccsc12 [Example 85, 6-hydroxy-5-oxo-4-[(5-phenyl-1,3,4-oxadiazol-2-yl)methyl]-4,5-dihydrothieno[3,2-b]pyridine-7-carboxylic acid] |
| < 200 | 250 to 750 | 250 to 750 | O=C(O)c1c(O)c(=O)n(Cc2cn(-c3ccc4c(c3)OCO4)nn2)c2ccsc12 [Example 148, 4-{[1-(benzo[d][1,3]dioxol-5-yl)-1H-1,2,3-triazol-4-yl]methyl}-6-hydroxy-5-oxo-4,5-dihydrothieno[3,2-b]pyridine-7-carboxylic acid] |
| < 200 | 2250 to 10000 | 2250 to 10000 | N#Cc1cccc(Cn2cc(Cn3c(=O)c(O)c(C(=O)O)c4sccc43)cn2)c1 [Example 128, 4-{[1-(3-cyanobenzyl)-1H-pyrazol-4-yl]methyl}-6-hydroxy-5-oxo-4,5-dihydrothieno[3,2-b]pyridine-7-carboxylic acid] |
| < 200 | 750 to 2250 | 2250 to 10000 | CC(=O)Nc1cccc(Cn2c(=O)c(O)c(C(=O)O)c3sccc32)c1 [Example 7, 4-[(3-acetamidophenyl)methyl]-6-hydroxy-5-oxo-thieno[3,2-b]pyridine-7-carboxylic acid] |
| 250 to 750 | > 10000 | > 10000 | Cc1cc(Cn2c(=O)c(O)c(C(=O)O)c3sccc32)on1 [Example 83, 6-hydroxy-4-[(3-methylisoxazol-5-yl)methyl]-5-oxo-4,5-dihydrothieno[3,2-b]pyridine-7-carboxylic acid] |
